# Assay results reported in patent EP1555944B1, “PACKAGED ANTIMICROBIAL MEDICAL DEVICE AND METHOD OF PREPARING SAME” (ETHICON, INC., priority 2002, dated 2004).
# Assays:
# S. aureus = conditions: suitable growth medium; cited from earlier work
# [1] = Triclosan distribution between suture and package components after sterilization; format: physicochemical; conditions: size 5-0 suture, 2% triclosan coating composition, about 23.2 µg before sterilization
# Protocol: The coated sutures each were placed in a package as described herein above including a containment component, i.e., a tray, for holding the suture and a paper component for covering the suture in the tray. The suture in the containment component and packaging were sterilized as described herein above. After sterilization, it was determined that that suture contained about 5.5 µg triclosan, the tray about 0.2 µg triclosan, the paper component about 2.3 µg triclosan, and the package heat seal coating about 1.5 µg triclosan. Triclosan not recovered after sterilization was about 13.7 µg triclosan. Fig. 1 indicates triclosan transfer from the antimicrobial suture to the tray of the package as a function of time at 55°C.
structure (smiles),measurement,setting,value
"Oc1cc(Cl)ccc1Oc1ccc(Cl)cc1Cl [2,4,4'-trichloro-2'-hydroxydiphenyl ether]",minimum inhibitory concentration (MIC),S. aureus,0.01 ppm
same,Triclosan not recovered after sterilization,[1],about 13.7 µg
same,triclosan on package heat seal coating after sterilization,[1],about 1.5 µg
same,triclosan on paper component after sterilization,[1],about 2.3 µg
same,triclosan on suture after sterilization,[1],about 5.5 µg
same,triclosan on tray after sterilization,[1],about 0.2 µg
